Experimental data: US10961203B2, “Crystalline forms of 3-Z-[1-(4-(N-((4-methyl-piperazin-1-yl)-methylcarbonyl)-N-methyl-amino)-phenylamino)-1-phenyl-methylene]-6-methoxycarbonyl-2-indolinone” (Allgenesis Biotherapeutics Inc., priority 2017, dated 2021)

Experiment: Stability test of Crystalline Form F of Nintedanib (XRPD after storage)
Type: physicochemical
Conditions: polyethylene bag in desiccator, no humidity control, room temperature, three months; FIG. 15 before, FIG. 23 after
Description: In each example, XRPD experiment was conducted using a Bruker D8 advance diffractometer, with a Cu Ka (wavelength 1.54056 Å) filled tube (40 kV, 40 mA) as the X-ray source having a wide angle goniometer, a 0.6 mm divergent slit, a 2.5° primary Sola slit, a 2.5° secondary Sola slit, an 8 mm anti-scattering slit, a 0.1 mm detector slit, and Lynx Eye detector, at room temperature. In a 2θ continuous scanning mode, the data acquisition was completed with a scanning speed of 2.4°/min and a scanning step of 0.02° in the range of 3° to 40°.
Crystalline Form F of Nintedanib obtained with the preparation method in Example 5 was placed in a polyethylene plastic bag, the plastic bag was then placed in a desiccator with no humidity control at room temperature for three months (from April 12 to July 12).

SMILES: COC(=O)c1ccc2c(c1)NC(=O)/C2=C(\Nc1ccc(N(C)C(=O)CN2CCN(C)CC2)cc1)c1ccccc1 [Crystalline Form F, 3-Z-[1-(4-(N-((4-methyl-piperazin-1-yl)-methylcarbonyl)-N-methyl-amino)-phenylamino)-1-phenyl-methylene]-6-methoxycarbonyl-2-indolinone]
- crystalline form by XRPD after storage (stability of Crystalline Form F): all the measurements showed a result of Crystalline Form F
